In US11753395B2 (Kinnate Biopharma Inc., priority 2021, dated 2023):
pEC50, pIC50: −log10 of the molar value.

What was measured:
[1] = molecular target: T1, Ba/F3-TPR-MET-D1228N cells (Homo sapiens, UniProt P08581, D1228N, cells depend on it); test: CellTiter-Glo Cell Viability Assay, Ba/F3-TPR-MET-D1228N; format: cell-based; settings: 72 hours
T1 construct: fused on or other part: P12270 (Nucleoprotein TPR)
Experimental: (§1) Ba/F3-TPR-MET and Ba/F3-TPR-MET-D1228N cells were seeded at 3000 cells per well in a 96 well plate in 90 μL growth media and allowed to incubate overnight at 37° C. with 5% CO2. The following day, compounds were serially diluted from a 10 mM top dose for a 9-point 3-fold dilution curve in DMSO. Following a 100-fold dilution in growth media, a further 10-fold dilution was made into the cell plate for a final volume of 100 μL and 0.1% DMSO. Compounds and cells were incubated together for 72 hours at 37° C. with 5% CO2. The CellTiter-Glo® 2.0 Assay determines the number of viable cells in culture by quantifying ATP, which indicates the presence of metabolically active cells. Luminescence readout is directly proportional to the number of viable cells in culture. CellTiter-Glo reagent (Promega, G9243) and cell plates were allowed to equilibrate to room temperature for at least 15 min, then 100 μL of CellTiter-Glo was added to each well for a 1:1 ratio of reagent to media. Samples were placed on a shaker for 2 min prior to a 30 min incubation at room temperature protected from light. Luminescence was read on a Perkin Elmer Envision plate reader 2105 and used to calculate ICso values within the Dotmatics Knowledge Solutions Studies curve fitting environment (Dotmatics, Bishops Stortford, UK, CM23) and are presented in Table 2.

MET D1228N = molecular target: T2, MET D1228N (Homo sapiens, UniProt P08581, D1228N); test: MET D1228N Mobility Shift Assay; settings: biochemical assay IC50; 100 μM ATP, 60 minute kinase reaction
T2 construct: purchased Signalchem M52-12IG
T2 sequence (P08581 25-1390 D1228N): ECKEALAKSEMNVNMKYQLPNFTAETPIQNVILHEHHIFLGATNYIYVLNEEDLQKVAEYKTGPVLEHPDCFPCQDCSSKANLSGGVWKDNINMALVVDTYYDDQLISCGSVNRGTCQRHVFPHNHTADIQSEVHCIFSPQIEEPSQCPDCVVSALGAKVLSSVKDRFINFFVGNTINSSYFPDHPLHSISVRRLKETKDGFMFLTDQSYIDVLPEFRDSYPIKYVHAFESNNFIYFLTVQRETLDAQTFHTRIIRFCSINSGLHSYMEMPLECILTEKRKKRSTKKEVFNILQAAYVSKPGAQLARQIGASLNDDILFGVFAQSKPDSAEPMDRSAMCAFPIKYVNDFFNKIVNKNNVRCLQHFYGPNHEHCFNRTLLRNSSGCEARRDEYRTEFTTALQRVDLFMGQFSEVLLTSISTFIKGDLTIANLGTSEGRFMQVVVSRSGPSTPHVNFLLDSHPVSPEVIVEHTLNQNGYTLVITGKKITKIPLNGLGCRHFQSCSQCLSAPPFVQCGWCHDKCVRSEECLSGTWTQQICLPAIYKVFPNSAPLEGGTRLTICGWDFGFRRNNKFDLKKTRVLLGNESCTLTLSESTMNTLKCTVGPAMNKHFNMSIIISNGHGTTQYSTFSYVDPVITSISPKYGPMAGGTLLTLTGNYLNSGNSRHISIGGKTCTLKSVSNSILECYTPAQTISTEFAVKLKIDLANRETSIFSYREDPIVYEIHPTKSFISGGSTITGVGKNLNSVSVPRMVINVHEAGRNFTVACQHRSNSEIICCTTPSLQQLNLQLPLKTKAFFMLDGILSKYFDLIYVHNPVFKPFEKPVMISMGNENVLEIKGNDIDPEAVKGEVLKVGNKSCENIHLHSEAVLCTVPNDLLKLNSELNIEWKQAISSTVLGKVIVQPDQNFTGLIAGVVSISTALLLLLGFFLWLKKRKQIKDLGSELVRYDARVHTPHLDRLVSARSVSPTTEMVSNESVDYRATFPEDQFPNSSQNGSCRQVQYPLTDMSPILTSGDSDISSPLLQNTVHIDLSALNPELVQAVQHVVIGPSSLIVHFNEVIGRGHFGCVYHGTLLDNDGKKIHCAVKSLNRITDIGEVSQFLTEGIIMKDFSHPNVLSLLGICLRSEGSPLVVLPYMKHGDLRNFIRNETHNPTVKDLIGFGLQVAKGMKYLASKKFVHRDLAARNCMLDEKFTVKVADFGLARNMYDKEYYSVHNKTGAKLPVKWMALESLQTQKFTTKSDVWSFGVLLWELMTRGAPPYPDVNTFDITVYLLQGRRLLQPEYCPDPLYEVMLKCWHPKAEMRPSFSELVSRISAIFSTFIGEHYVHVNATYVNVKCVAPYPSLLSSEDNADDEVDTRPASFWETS
Experimental: (§2) Small molecule inhibition of MET D1228N kinase activity was evaluated using a fluorescence -based microfluidic mobility shift assay. MET D1228N catalyzes the production of ADP from ATP during phosphoryl transfer to the substrate peptide, FLPeptide30 (5-FAM-KKKKEEIYFFF -CONH2) (Perkin Elmer, 760430). MET D1228N enzyme (Signalchem, M52-12IG) at 0.313 nM was prepared with 10 mM MgCl2 and 1.5 μM substrate peptide in a buffer containing 50 mM HEPES, 1 mM EGTA, 0.01% Brij-35, 0.05% BSA, and 2 mM DTT and pre-incubated at room temperature for 30 min prior to the start of the reaction. 100 μM ATP was added to start the reaction. The mobility shift assay electrophoretically separates the fluorescently labeled peptides (substrate and phosphorylated product) following the 60 minute kinase reaction. The reaction was terminated by addition of 0.5 M EDTA. Both substrate and product were measured and the ratio of these values used to generate % conversion of substrate to product by the LabChip EZ reader (Perkin Elmer). ICso values were calculated using the inhibition of conversion ratio using Dotmatics Knowledge Solutions Studies curve fitting environment (Dotmatics, Bishops Stortford, UK, CM23) and are presented in Table 2.

MET = molecular target: T3, MET (Homo sapiens, UniProt P08581); test: MET Mobility Shift Assay; settings: biochemical assay IC50; 100 μM ATP, 60 minute kinase reaction
T3 construct: purchased Carna Biosciences 08-151
T3 sequence (P08581 25-1390): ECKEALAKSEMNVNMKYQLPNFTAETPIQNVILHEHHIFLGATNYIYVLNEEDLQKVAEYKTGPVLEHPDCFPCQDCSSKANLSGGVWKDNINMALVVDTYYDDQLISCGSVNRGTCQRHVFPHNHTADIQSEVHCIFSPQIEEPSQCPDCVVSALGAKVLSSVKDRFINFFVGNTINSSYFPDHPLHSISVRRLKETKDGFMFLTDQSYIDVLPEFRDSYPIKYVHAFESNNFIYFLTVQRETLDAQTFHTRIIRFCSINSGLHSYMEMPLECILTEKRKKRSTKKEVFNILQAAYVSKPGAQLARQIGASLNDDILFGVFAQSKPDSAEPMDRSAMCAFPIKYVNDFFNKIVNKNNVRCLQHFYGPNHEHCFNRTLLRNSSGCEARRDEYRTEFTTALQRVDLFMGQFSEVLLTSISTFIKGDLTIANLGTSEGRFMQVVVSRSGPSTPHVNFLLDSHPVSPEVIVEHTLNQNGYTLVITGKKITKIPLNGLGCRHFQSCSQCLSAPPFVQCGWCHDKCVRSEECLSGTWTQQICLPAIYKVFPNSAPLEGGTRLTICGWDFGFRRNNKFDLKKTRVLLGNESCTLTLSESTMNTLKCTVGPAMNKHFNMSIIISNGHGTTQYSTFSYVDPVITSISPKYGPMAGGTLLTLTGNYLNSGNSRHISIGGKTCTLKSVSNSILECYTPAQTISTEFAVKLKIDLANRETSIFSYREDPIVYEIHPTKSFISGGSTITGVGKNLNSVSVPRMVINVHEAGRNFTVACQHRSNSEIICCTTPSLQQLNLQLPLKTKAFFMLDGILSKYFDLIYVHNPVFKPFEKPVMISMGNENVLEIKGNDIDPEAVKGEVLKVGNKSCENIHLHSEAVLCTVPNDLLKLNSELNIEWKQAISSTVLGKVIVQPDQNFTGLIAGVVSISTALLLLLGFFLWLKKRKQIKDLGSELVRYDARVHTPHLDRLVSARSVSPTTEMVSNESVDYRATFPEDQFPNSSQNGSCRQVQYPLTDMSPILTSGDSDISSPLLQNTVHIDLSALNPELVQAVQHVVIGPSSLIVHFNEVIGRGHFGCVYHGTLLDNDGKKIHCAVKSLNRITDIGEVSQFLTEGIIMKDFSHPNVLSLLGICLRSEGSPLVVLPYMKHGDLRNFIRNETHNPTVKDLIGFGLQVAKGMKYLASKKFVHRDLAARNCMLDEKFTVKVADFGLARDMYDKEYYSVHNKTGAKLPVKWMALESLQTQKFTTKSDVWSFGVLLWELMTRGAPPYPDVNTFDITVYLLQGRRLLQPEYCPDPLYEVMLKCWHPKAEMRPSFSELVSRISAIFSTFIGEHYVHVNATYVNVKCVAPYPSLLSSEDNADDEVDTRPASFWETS
Experimental: as §2, with “MET” for “MET D1228N”, “a fluorescence-based” for “a fluorescence -based”, “FLPeptide30 (5-FAM-KKKKEEIYFFF-CONH2)” for “FLPeptide30 (5-FAM-KKKKEEIYFFF -CONH2)”, “MET enzme (Carna Biosciences, 08-151)” for “MET D1228N enzyme (Signalchem, M52-12IG)”, “at 0.625” for “at 0.313”

Ba/F3-TPR-MET cells = molecular target: T4, Ba/F3-TPR-MET cells (Homo sapiens, UniProt P08581); test: CellTiter-Glo Cell Viability Assay, Ba/F3-TPR-MET; format: cell-based; settings: 72 hours
T4 construct: fused on or other part: P12270 (Nucleoprotein TPR)
Experimental: as §1

T1 sequence (P08581 whole entry D1228N, the tested form may be a part): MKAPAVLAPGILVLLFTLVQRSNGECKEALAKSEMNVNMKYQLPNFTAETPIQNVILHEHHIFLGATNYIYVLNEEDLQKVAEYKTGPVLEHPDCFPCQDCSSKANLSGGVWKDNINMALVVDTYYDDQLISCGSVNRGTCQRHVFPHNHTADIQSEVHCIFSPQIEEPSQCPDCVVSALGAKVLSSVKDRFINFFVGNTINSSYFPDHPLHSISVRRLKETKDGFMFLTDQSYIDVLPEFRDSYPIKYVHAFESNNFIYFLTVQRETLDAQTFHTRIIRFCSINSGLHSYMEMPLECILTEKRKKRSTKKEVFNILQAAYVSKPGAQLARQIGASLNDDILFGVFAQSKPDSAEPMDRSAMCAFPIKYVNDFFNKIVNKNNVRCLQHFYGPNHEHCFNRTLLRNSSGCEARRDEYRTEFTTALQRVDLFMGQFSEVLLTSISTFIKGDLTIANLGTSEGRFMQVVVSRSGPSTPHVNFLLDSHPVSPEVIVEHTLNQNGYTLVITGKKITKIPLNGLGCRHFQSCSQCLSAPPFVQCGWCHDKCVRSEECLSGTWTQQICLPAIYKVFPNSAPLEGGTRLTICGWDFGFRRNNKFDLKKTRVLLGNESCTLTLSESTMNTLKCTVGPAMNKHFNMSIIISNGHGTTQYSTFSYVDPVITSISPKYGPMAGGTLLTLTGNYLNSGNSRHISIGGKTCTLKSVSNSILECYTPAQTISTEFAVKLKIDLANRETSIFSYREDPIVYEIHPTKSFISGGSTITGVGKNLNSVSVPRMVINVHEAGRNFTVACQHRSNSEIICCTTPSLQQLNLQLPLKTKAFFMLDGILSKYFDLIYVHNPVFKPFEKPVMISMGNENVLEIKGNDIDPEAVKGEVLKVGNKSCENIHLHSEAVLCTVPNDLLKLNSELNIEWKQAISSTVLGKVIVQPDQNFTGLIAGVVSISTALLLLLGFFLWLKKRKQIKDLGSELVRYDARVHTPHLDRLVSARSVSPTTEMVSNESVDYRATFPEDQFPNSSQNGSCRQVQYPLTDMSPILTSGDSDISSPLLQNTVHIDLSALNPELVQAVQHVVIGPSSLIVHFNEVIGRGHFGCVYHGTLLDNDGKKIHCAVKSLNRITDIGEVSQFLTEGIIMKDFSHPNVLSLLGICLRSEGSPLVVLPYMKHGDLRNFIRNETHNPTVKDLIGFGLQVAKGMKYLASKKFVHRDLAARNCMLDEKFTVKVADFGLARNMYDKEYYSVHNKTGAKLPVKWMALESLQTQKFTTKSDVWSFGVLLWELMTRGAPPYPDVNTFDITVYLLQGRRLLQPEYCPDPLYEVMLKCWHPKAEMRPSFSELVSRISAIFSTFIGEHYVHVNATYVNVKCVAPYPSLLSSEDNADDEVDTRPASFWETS

SMILES | pIC50 (MET D1228N) | pIC50 (MET) | pEC50 [1] | pEC50 (Ba/F3-TPR-MET cells)
COc1cc2nccc(Oc3c(F)cc(NC(=O)c4cnccc4OC)cc3F)c2cn1 [Example 36, N-{3,5-difluoro-4-[(7-methoxy-1,6-naphthyridin-4-yl)oxy]phenyl}-4-methoxypyridine-3-carboxamide] | ≥ 7.00 | ≥ 7.00 | 6.00 to 7.00 | 6.00 to 7.00
C[C@H](O)COc1ccc2c(Oc3c(F)cc(NC(=O)c4cnccc4OC4CC4)cc3F)ccnc2c1 [Example 102, 4-cyclopropoxy-N-[3,5-difluoro-4-({7-[(2S)-2-hydroxypropoxy]quinolin-4-yl}oxy)phenyl]pyridine-3-carboxamide] | ≥ 7.00 | ≥ 7.00 | 6.00 to 7.00 | 6.00 to 7.00
NC1(COc2ccc3c(Oc4c(F)cc(NC(=O)c5cnccc5OC5CC5)cc4F)ccnc3c2)CC1 [Example 88] | ≥ 7.00 | ≥ 7.00 | ≥ 7.00 | 6.00 to 7.00
COc1cc2nccc(Oc3c(F)cc(NC(=O)c4cnccc4OC4CC4)cc3F)c2cc1OC [Example 91, 4-cyclopropoxy-N-{4-[(6,7-dimethoxyquinolin-4-yl)oxy]-3,5-difluorophenyl}pyridine-3-carboxamide] | ≥ 7.00 | ≥ 7.00 | ≥ 7.00 | ≥ 7.00
CNCCOc1cc2nccc(Oc3c(F)cc(NC(=O)c4cnccc4OC4CC4)c(F)c3F)c2cc1OC [Example 93, 4-cyclopropoxy-N-[2,3,5-trifluoro-4-({6-methoxy-7-[2-(methylamino)ethoxy]quinolin-4-yl}oxy)phenyl]pyridine-3-carboxamide] | ≥ 7.00 | ≥ 7.00 | ≥ 7.00 | ≥ 7.00
CNCCOc1ccc2c(Oc3c(F)cc(NC(=O)c4ccncc4OC4CC4)cc3F)ccnc2c1 [Example 81, 3-cyclopropoxy-N-(3,5-difluoro-4-((7-(2-(methylamino)ethoxy)quinolin-4-yl)oxy)phenyl)isonicotinamide] | ≥ 7.00 | ≥ 7.00 | ≥ 7.00 | ≥ 7.00
COc1ccncc1C(=O)Nc1cc(F)c(Oc2ccnc3cc(OCCO)ccc23)c(F)c1 [Example 41, N-(3,5-difluoro-4-((7-(2-hydroxyethoxy)quinolin-4-yl)oxy)phenyl)-4-methoxypyridine-3-carboxamide] | ≥ 7.00 | ≥ 7.00 | ≥ 7.00 | 6.00 to 7.00
CNCCCOc1cc2nccc(Oc3ccc(NC(=O)c4cnccc4OC)c(F)c3F)c2cc1OC [Example 18, N-[2,3-difluoro-4-({6-methoxy-7-[3-(methylamino)propoxy]quinolin-4-yl}oxy)phenyl]-4-methoxypyridine-3-carboxamide] | ≥ 7.00 | ≥ 7.00 | ≥ 7.00 | 6.00 to 7.00
CCOc1ccncc1C(=O)Nc1ccc(Oc2ccnc3cc(OCCCNC)c(OC)cc23)c(F)c1F [Example 17, N-[2,3-difluoro-4-({6-methoxy-7-[3-(methylamino)propoxy]quinolin-4-yl}oxy)phenyl]-4-ethoxypyridine-3-carboxamide] | ≥ 7.00 | ≥ 7.00 | ≥ 7.00 | ≥ 7.00
CCOc1ccncc1C(=O)Nc1cc(F)c(Oc2ccnc3cc(OCCNC)c(OC)cc23)c(F)c1F [Example 51, 4-ethoxy-N-[2,3,5-trifluoro-4-({6-methoxy-7-[2-(methylamino)ethoxy]quinolin-4-yl}oxy)phenyl]pyridine-3-carboxamide] | ≥ 7.00 | ≥ 7.00 | ≥ 7.00 | 6.00 to 7.00
CNCCCOc1cc2nccc(Nc3c(F)cc(NC(=O)c4cnccc4OC)cc3F)c2cc1OC [Example 19, N-(3,5-difluoro-4-((6-methoxy-7-(3-(methylamino)propoxy)quinolin-4-yl)amino)phenyl)-4-methoxypyridine-3-carboxamide] | ≥ 7.00 | ≥ 7.00 | < 5.00 | < 5.00
CCCOc1ccncc1C(=O)Nc1cc(F)c(Oc2ccnc3cc(OCCNC)c(OC)cc23)c(F)c1 [Example 56, N-[3,5-difluoro-4-({6-methoxy-7-[2-(methylamino)ethoxy]quinolin-4-yl}oxy)phenyl]-4-propoxypyridine-3-carboxamide] | ≥ 7.00 | ≥ 7.00 | ≥ 7.00 | ≥ 7.00

Now from value to compound, other results behind:

pIC50 (MET D1228N) | pIC50 (MET) | SMILES | pEC50 [1] | pEC50 (Ba/F3-TPR-MET cells)
≥ 7.00 | ≥ 7.00 | COCCOc1cnc2c(Oc3c(F)cc(NC(=O)c4ccccc4F)cc3F)ccnc2c1 [Example 140, N-(3,5-difluoro-4-((7-(2-methoxyethoxy)-1,5-naphthyridin-4-yl)oxy)phenyl)-2-fluorobenzamide] | ≥ 7.00 | ≥ 7.00
≥ 7.00 | ≥ 7.00 | COC[C@H](C)Oc1nc2c(Oc3c(F)cc(NC(=O)c4cnccc4OC)cc3F)ccnc2cc1OC [Example 146, (S)-N-(3,5-difluoro-4-((7-methoxy-6-((1-methoxypropan-2-yl)oxy)-1,5-naphthyridin-4-yl)oxy)phenyl)-4-methoxynicotinamide] | ≥ 7.00 | ≥ 7.00
≥ 7.00 | ≥ 7.00 | COCCOc1ccc2c(Oc3c(F)cc(NC(=O)c4cnccc4OC4CC4)cc3F)ccnc2c1 [Example 105, 4-cyclopropoxy-N-(3,5-difluoro-4-{[7-(2-methoxyethoxy)quinolin-4-yl]oxy}phenyl)pyridine-3-carboxamide] | ≥ 7.00 | 6.00 to 7.00
≥ 7.00 | ≥ 7.00 | COc1cc2nccc(Oc3c(F)cc(NC(=O)c4cnccc4OC)cc3F)c2cc1O[C@H](C)CO [Example 131, (R)-N-(3,5-difluoro-4-{[6-((1-hydroxypropan-2-yl)oxy)-7-methoxyquinolin-4-yl]oxy}phenyl)-4-methoxypyridine-3-carboxamide] | ≥ 7.00 | ≥ 7.00
≥ 7.00 | ≥ 7.00 | COc1cc2c(Oc3c(F)cc(NC(=O)c4cnc(C)cc4OC4CC4)cc3F)ccnc2cc1OCCO [Example 116, 4-cyclopropoxy-N-(3,5-difluoro-4-{[7-(2-hydroxyethoxy)-6-methoxyquinolin-4-yl]oxy}phenyl)-6-methylpyridine-3-carboxamide] | ≥ 7.00 | ≥ 7.00
≥ 7.00 | ≥ 7.00 | COc1cc2nccc(Oc3c(F)cc(NC(=O)c4cnccc4OC)cc3F)c2cc1OCCO [Example 122, N-(3,5-difluoro-4-{[6-(2-hydroxyethoxy)-7-methoxyquinolin-4-yl]oxy}phenyl)-4-methoxypyridine-3-carboxamide] | ≥ 7.00 | ≥ 7.00
≥ 7.00 | ≥ 7.00 | COCCOc1cc2nccc(Oc3c(F)cc(NC(=O)c4cnccc4OC4CC4)cc3F)c2nc1OC [Example 136, 4-cyclopropoxy-N-(3,5-difluoro-4-{[6-methoxy-7-(2-methoxyethoxy)-1,5-naphthyridin-4-yl]oxy}phenyl)pyridine-3-carboxamide] | ≥ 7.00 | ≥ 7.00
≥ 7.00 | ≥ 7.00 | CC(C)(CO)Oc1ccc2c(Oc3c(F)cc(NC(=O)c4cnccc4OC4CC4)cc3F)ccnc2c1 [Example 108, 4-cyclopropoxy-N-(3,5-difluoro-4-((7-((1-hydroxy-2-methylpropan-2-yl)oxy)quinolin-4-yl)oxy)phenyl)pyridine-3-carboxamide] | 5.00 to 6.00 | 5.00 to 6.00
